Like-named read-outs stand apart in the source and are kept apart here.
Assays:
MK2 [1] = target: T1, MK2 (Homo sapiens (Human), UniProt P49137); experiment: MK2 cellular assay, total and phospho-Hsp27 (Serine 78) by MSD ELISA (Thp1); assay type: cell-based
Protocol: MK2 Cellular Assay—Detection of Total and Phospho-Hsp27 (Serine 78) by MSD ELISA (Thp1)
Compounds of the invention were assayed in Thp-1 human acute monocytic leukemia cells to measure inhibition of MK2 activity. Thp-1 cells were grown in culture medium containing RPMI/10% FBS (fetal bovine serum)/0.05 mM 2-mercaptoethanol. 72 hours prior to the assay, 8×10^4 cells per well were plated in a 96 well flat bottom plate along with 10 ng/mL phorbol 12-myristate 13-acetate (PMA). Cells were cultured in an incubator at 37° C. until needed for the assay. Cell plate media was replaced with culture media just prior to assay while compound dilutions were being made.
Stock solutions of test compound, 1 mM in DMSO, were prepared. 0.9 μl of test compound was added to 300 μl cell media for a starting concentration of 3000 nM. […] Cell plate media was discarded, followed by addition of 100 μl of the compound containing media. The resulting preparation was incubated at 37° C. for 1 hour.
Test compound-containing cell assay media was removed and the cells were washed once with cell assay media. Cell assay media containing 50 ng/mL LPS (lipopolysaccharide) was added to the each well and incubated for 45 minutes. Following LPS incubation, the cells were washed once with PBS (phosphate-buffered saline) and lysed with 60 μl Cell Extraction Buffer (Invitrogen #FNN0011) plus protease and phosphatase inhibitors. The plate was then stored at −80° C. until further analysis.
The MULTI-SPOT Phospho(Ser78)/Total HSP27 ELISA Assay kit was purchased from Meso Scale […] (MSD; catalog #K15128D). […] The pre-coated MSD plate was blocked with 150 μL/well of 3% BSA in MSD wash buffer. The preparation was placed on a shaker at room temperature for an hour. While the ELISA plate was blocked, the cell assay plate stored at −80° C. was placed on a shaker at 4° C. for 1 hour to thaw.
The blocked MSD plate was washed on a plate washer, tapping out the last bit of wash solution, followed by addition of 30 μl of the lysate from the cell assay plate. The preparation was covered and incubated for 1 hour at room temperature. The lysate was removed, the plate was washed 3 times on a plate washer and the last bit of wash buffer was tapped out and replaced with 25 μl/well detection antibody (anti-total HSP27 conjugated with an electrochemiluminescent compound, MSD SULFO-TAG label, supplied in kit) made in 1% BSA/MSD wash buffer. The plate was incubated for 1 hour at room temperature on a shaker, followed by 3 washes. The last bit of wash buffer was tapped out. 150 μl/well 1×MSD read buffer was added (4× read buffer supplied with kit) and the plate was analyzed on the MSD SECTOR® Imager for analysis. The SECTOR® Imager measures intensity of emitted light to provide a quantitative measure of phosphorylated HSP27 (Ser78) and total HSP27 present in the sample. The relative percent phosphoprotein in a sample is calculated by dividing the Phospho-HSP27 signal intensity over the total HSP27 signal intensity measured in each well.

MK2 [2] = target: T1, MK2; conditions: percentage of modified protein after 60 minutes at room temperature, 10-fold excess of compound; MALDI (I-1 to I-50), magnetic bead MALDI (I-51 to I-129)
[3] = target: p38α activated, mitogen-activated protein kinase-activated protein kinase 2 (MAPKAP-K2 or MK2) enzyme (Homo sapiens (Human), UniProt P49137); experiment: MK2 Omnia continuous-read kinase assay for compound potency; assay type: biochemical
Sequence of p38α activated, mitogen-activated protein kinase-activated protein kinase 2 (MAPKAP-K2 or MK2) enzyme (P49137 whole entry): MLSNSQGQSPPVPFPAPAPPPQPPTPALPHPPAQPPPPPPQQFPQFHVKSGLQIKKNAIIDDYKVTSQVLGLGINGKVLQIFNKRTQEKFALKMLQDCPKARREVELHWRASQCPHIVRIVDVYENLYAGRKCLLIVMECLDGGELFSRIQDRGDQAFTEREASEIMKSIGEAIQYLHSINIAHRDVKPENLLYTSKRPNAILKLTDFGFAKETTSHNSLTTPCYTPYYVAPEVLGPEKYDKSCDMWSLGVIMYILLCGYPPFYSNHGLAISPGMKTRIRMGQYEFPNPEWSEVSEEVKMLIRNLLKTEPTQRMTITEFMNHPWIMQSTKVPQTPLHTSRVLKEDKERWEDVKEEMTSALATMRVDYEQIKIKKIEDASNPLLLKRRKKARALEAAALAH
Excerpt: Mitogen-Activated Protein Kinase-Activated Protein Kinase 2 Omnia® Assay for Compound Potency Assessment:
The protocol below describes a continuous-read kinase assay optimized to measure potency of compounds against p38α activated, mitogen-activated protein kinase-activated protein kinase 2 (MAPKAP-K2 or MK2) enzyme. Further details of this assay are described by Life Technologies, Carlsbad, Calif. on their website at the following URL: http://tools.lifetechnologies.com/content/sfs/manuals/omnia_kinase_assay_man.pdf.
[Reagent] used: • [MK-2]=0.4 nM, • [ATP]=10 μM and • [ST3-Sox]=10 μM (ATP^appKM=10 μM)
Kinase reactions were started with the addition of 45 μL of the ATP-peptide substrate S/T3-Sox mix and monitored every 71 seconds for 120 minutes at λex360/λem485 in a Synergy H4 plate reader from BioTek (Winooski, Vt.) at room temperature.
Background signals from the no enzyme control wells were subtracted from all progress curves. The initial linear portions of the net progress curves were fit according to a linear equation to yield the slope and percentage of inhibition (% inhibition) at each compound concentration. The net progress curves obtained during the first two hours of reactions were also fit according to an ascending single-exponential equation (Eq. 1) to yield kobs values at each compound concentration. Plots of % Inhibition versus inhibitor concentrations were fit according to a dose-response equation (Eq. 2) to generate IC50 and Hill slope values while plots of kobs versus inhibitor concentration were fit according to Equation 3 (Eq. 3) to generate apparent kinact/KI values using the GraphPad PRISM software (Version 6.00; GraphPad San Diego, Calif.).
[formula] where F is the fluorescence intensity from the plate reader, V0 is a constant reflecting the relationship between the instrument readout and product concentration, t is time, e is Euler's number, and kobs is the observed inactivation rate constant.
[formula] where % Inhibition is percentage of inhibition, IC50 is half maximal inhibitory concentration, [I] is the inhibitor concentration, and n is the Hill slope.

[4] = Thp-1 cells, 1 hour compound, 50 ng/mL LPS 45 minutes, p-HSP27 (Ser78)/total HSP27, read-out: pHSP27 signaling EC50
[5] = [MK-2]=0.4 nM, [ATP]=10 μM, [ST3-Sox]=10 μM, read-out: MK2 IC50
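For Mass Modification in this document: covalent binding read from centroid mass shift of compound-treated versus untreated intact MK2, shift divided by compound molecular weight, giving fraction of total protein bound.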

T1 sequence (P49137 whole entry): as above

SMILES	EC50 (MK2 [1]; [4]) [nM]	Mass Modification (MK2 [2])	IC50 [3, 5] [nM]	EC50 (MK2 [1]) [nM]	IC50 [3] [nM]
C[C@@H]1CNc2c(sc3ccc4nc(Nc5cc(F)ncc5C#N)ccc4c23)C(=O)N1 [I-27, (R)-6-fluoro-4-((10-methyl-8-oxo-9,10,11,12-tetrahydro-8H-[1,4]diazepino[5′,6′:4,5]thieno[3,2-f]quinolin-3-yl)amino)nicotinonitrile]	< 100	G (mass modification ≦30%)	< 100		
NC[C@@H]1CNc2c(sc3ccc4nc(Nc5cc(Cl)ncn5)ccc4c23)C(=O)N1 [I-28, (R)-10-(aminomethyl)-3-((6-chloropyrimidin-4-yl)amino)-9,10,11,12-tetrahydro-8H-[1,4]diazepino[5′,6′:4,5]thieno[3,2-f]quinolin-8-one]	> 1000	E (mass modification of ≧70%)	< 100		
C[C@@H]1CNc2c(sc3ccc4nc(Nc5cc(F)ncc5C(N)=O)ccc4c23)C(=O)N1 [I-29, (R)-6-fluoro-4-((10-methyl-8-oxo-9,10,11,12-tetrahydro-8H-[1,4]diazepino[5′,6′:4,5]thieno[3,2-f]quinolin-3-yl)amino)nicotinamide]	> 1000	G (mass modification ≦30%)	< 100		
NC(=O)c1cnc(Cl)nc1Nc1ccc2c(ccc3sc4c(c32)NC[C@@H](CO)NC4=O)n1 [I-30, (S)0-2-chloro-4-((10-(hydroxymethyl)-8-oxo-9,10,11,12-tetrahydro-8H-[1,4]diazepino[5′,6′:4,5]thieno[3,2-f]quinolin-3-yl)amino)pyrimidine-5-carboxamide]	101 to 500	E (mass modification of ≧70%)	< 100		
C[C@@H]1CNc2c(sc3ccc4nc(N(CCN(C)C)c5cc(F)ncn5)ccc4c23)C(=O)N1 [I-33, (R)-3-((2-(dimethylamino)ethyl)(6-fluoropyrimidin-4-yl)amino)-10-methyl-9,10,11,12-tetrahydro-8H-[1,4]diazepino[5′,6′:4,5]thieno[3,2-f]quinolin-8-one]		F (mass modification of 31-69%)		> 1000	501 to 999
C[C@@H]1CNc2c(sc3ccc4nc(N(C)c5nc(Cl)ncc5C(N)=O)ccc4c23)C(=O)N1 [I-34, (R)-2-chloro-4-(methyl(10-methyl-8-oxo-9,10,11,12-tetrahydro-8H-[1,4]diazepino[5′,6′:4,5]thieno[3,2-f]quinolin-3-yl)amino)pyrimidine-5-carboxamide]	> 1000	G (mass modification ≦30%)	501 to 999		
CNC[C@@H]1CNc2c(sc3ccc4nc(Nc5cc(F)ncn5)ccc4c23)C(=O)N1 [I-35]	501 to 999	F (mass modification of 31-69%)	101 to 500		
C[C@@H]1CNc2c(sc3ccc4nc(N(C)c5cc(F)ncn5)ccc4c23)C(=O)N1 [I-38, (R)-3-((6-fluoropyrimidin-4-yl)(methyl)amino)-10-methyl-9,10,11,12-tetrahydro-8H-[1,4]diazepino[5′,6′:4,5]thieno[3,2-f]quinolin-8-one]		G (mass modification ≦30%)	< 100	> 1000	
C[C@@H]1CNc2c(sc3ccc4nc(Nc5nc(F)cc(OC6COC6)n5)ccc4c23)C(=O)N1 [I-42, (R)-3-((4-fluoro-6-(oxetan-3-yloxy)pyrimidin-2-yl)amino)-10-methyl-9,10,11,12-tetrahydro-8H-[1,4]diazepino[5′,6′:4,5]thieno[3,2-f]quinolin-8-one]		G (mass modification ≦30%)	< 100	501 to 999	
COCCOc1nc(F)cc(Nc2ccc3c(ccc4sc5c(c43)NC[C@@H](C)NC5=O)n2)n1 [I-44, (R)-3-((6-fluoro-2-(2-methoxyethoxy)pyrimidin-4-yl)amino)-10-methyl-9,10,11,12-tetrahydro-8H-[1,4]diazepino[5′,6′:4,5]thieno[3,2-f]quinolin-8-one]		G (mass modification ≦30%)	< 100	101 to 500	
COCCOc1cc(F)nc(Nc2ccc3c(ccc4sc5c(c43)NC[C@@H](C)NC5=O)n2)n1 [I-45, (R)-3-((4-fluoro-6-(2-methoxyethoxy)pyrimidin-2-yl)amino)-10-methyl-9,10,11,12-tetrahydro-8H-[1,4]diazepino[5′,6′:4,5]thieno[3,2-f]quinolin-8-one]		G (mass modification ≦30%)	< 100	> 1000	
C[C@@H]1CNc2c(sc3ccc4nc(Nc5cc(F)nc(OC6CCCN(C)C6)n5)ccc4c23)C(=O)N1 (stereo partly drawn) [I-47, (10R)-3-((6-fluoro-2-((1-methylpiperidin-3-yl)oxy)pyrimidin-4-yl)amino)-10-methyl-9,10,11,12-tetrahydro-8H-[1,4]diazepino[5′,6′:4,5]thieno[3,2-f]quinolin-8-one]		F (mass modification of 31-69%)	< 100	101 to 500	
C[C@@H]1CNc2c(sc3ccc4nc(Oc5ccnc(Cl)n5)ccc4c23)C(=O)N1 [I-53, (R)-3-((2-chloropyrimidin-4-yl)oxy)-10-methyl-9,10,11,12-tetrahydro-8H-[1,4]diazepino[5′,6′:4,5]thieno[3,2-f]quinolin-8-one]	101 to 500	F (mass modification of 31-69%)	< 100		
C[C@@H]1CNc2c(sc3ccc4nc(Sc5cc(F)ncn5)ccc4c23)C(=O)N1 [I-54, (R)-3-((6-fluoropyrimidin-4-yl)thio)-10-methyl-9,10,11,12-tetrahydro-8H-[1,4]diazepino[5′,6′:4,5]thieno[3,2-f]quinolin-8-one]	> 1000	E (mass modification of ≧70%)	< 100		
C[C@@H]1CNc2c(sc3ccc4nc(Oc5cncc(Cl)n5)ccc4c23)C(=O)N1 [I-55, (R)-3-((6-chloropyrazin-2-yl)oxy)-10-methyl-9,10,11,12-tetrahydro-8H-[1,4]diazepino[5′,6′:4,5]thieno[3,2-f]quinolin-8-one]	> 1000	G (mass modification ≦30%)	101 to 500		
C[C@@H]1CNc2c(sc3ccc4nc(Oc5cc(Cl)ncn5)ccc4c23)C(=O)N1 [I-56, (R)-3-((6-chloropyrimidin-4-yl)oxy)-10-methyl-9,0,11,12-tetrahydro-8H-[1,4]diazepino[5′,6′:4,5]thieno[3,2-f]quinolin-8-one]	< 100	E (mass modification of ≧70%)	< 100		
